Literature values, collected in patent publication US7585978B2, “Processes of manufacturing substituted-1,4-dihydropyridines, improved aqueous solutions thereof, and processes of manufacturing the solutions” (Navinta LLC, priority 2006, dated 2009).
“Also recorded” adds a separate entry of the source. Counter-ions that a name gives are not always drawn.

Assays:
[1] = hydrochloride

## N=C(N)NCCC[C@H](N)C(=O)O [L-arginine]
other
  pKa (first of three pKa values): 2.18
  pKa (second of three pKa values): 9.09

## COC(=O)C1=C(C)NC(C)=C(C(=O)OCCN(C)Cc2ccccc2)C1c1cccc([N+](=O)[O-])c1 (stereo not drawn) [nicardipine hydrochloride]
[1]
  solubility in water: poorly soluble in water; also recorded: very poorly soluble in water
